Laboratory results published in patent US6548085B1, “Insecticidal compositions and method of controlling insect pests using same” (Woodstream Corporation, priority 1998, dated 2003).

Columns and labels:
Type in all cases: in vivo
[1] = test system: German cockroaches; assay: Direct spray kill time test on German cockroaches; settings: aqueous solution, sprayed 3 seconds, entry of 300 = no deaths during that time
Excerpt: (§1) To determine the effectiveness of an essential oil/sodium lauryl sulfate aerosol spray according to this invention as an insecticide when applied directly by a conventional pump spray on German cockroaches, American cockroaches and various ant species.
(§2) Insects shall be healthy and undeformed. Only adult male and female insects shall be used for testing purposes. The insects shall be contained in a 21.5×15.5×5.5 inch testing arena.
(§3) 1. Gather 10 adult insects, 5 males and 5 females.
(§4) 2. Place 1 insect into the testing arena.
(§5) 3. Select spray to be tested. Spray cockroaches for 3 seconds, ants for 2 seconds.
(§6) 4. Record kill time in seconds.
(§7) 5. Wipe away any spray residue before beginning another test.
(§8) 6. Repeat steps 2, 3, 4 and 5 until all test insects are used.
(§9) 7. Record date of testing, type of test material used, type of insect used, kill time in seconds, and whether or not test specimen meets standard.
(§10) Following this protocol, aqueous solutions of selected essential oils were prepared at different concentrations, both with and without the addition of sodium lauryl sulfate, and tested for their insecticidal activity (kill time in seconds) against German and American cockroaches and black or pavement ants. The results are tabulated below and illustrated graphically in the accompanying drawings.
(§11) ^3 The tests shown in the Tables utilized the active ingredients in an aqueous solution dispensed from a standard pump-type sprayer. Shorter kill times result when the insecticide is aerosolized, i.e., dispensed from a pressurized aerosol can using a propellant such as carbon dioxide.

[2] = test system: American cockroaches; assay: Direct spray kill time test on American cockroaches; settings: aqueous solution, sprayed 3 seconds, entry of 300 = no deaths during that time
Excerpt: as §1, §2, §3, §4, §5, §6, §7, §8, §9, §10, §11

[3] = test system: Black Ants; assay: Direct spray kill time test on black ants; settings: aqueous solution, sprayed 2 seconds, entry of 300 = no deaths during that time
Excerpt: as §1, §2, §3, §4, §5, §6, §7, §8, §9, §10, §11

[4] = test system: Pavement Ants; assay: Direct spray kill time test on pavement ants; settings: aqueous solution, pump sprayer, sprayed 2 seconds, entry of 300 = no deaths during that time
Excerpt: as §1, §2, §3, §4, §5, §6, §7, §8, §9, §10, §11

[5] = cinnamon oil series, pump sprayer
[6] = citronella oil series, pump sprayer
[7] = cornmint oil series, standard pump-type sprayer
[8] = grapefruit oil series, pump sprayer
[9] = peppermint oil series, pump sprayer
[10] = tangerine oil series, pump sprayer
[11] = orange sweet oil series, pump sprayer

CCCCCCCCCCCCOS(=O)(=O)[O-].[Na+] [100% SLS, sodium lauryl sulfate]
Kill Time [1, 5]: > 300 s
Kill Time [1, 6]: > 300 s
Kill Time [1, 7]: > 300^1 Seconds
Kill Time [1, 8]: > 300 s
Kill Time ([1]; lemon oil series, pump sprayer): > 300 s
Kill Time ([1]; lime oil series, pump sprayer): > 300 s
Kill Time ([1]; orange sweet oil series, pump sprayer, repetitions of 10% OSO mixture not performed): > 300 s
Kill Time [1, 9]: > 300 s
Kill Time [1, 10]: > 300 s
Kill Time [2, 5]: > 300 s
Kill Time [2, 6]: > 300 s
Kill Time [2, 7]: > 300 s
Kill Time [2, 8]: > 300 s
Kill Time ([2]; lemon oil series, pump sprayer): > 300 s
Kill Time ([2]; lime oil series, pump sprayer): > 300 s
Kill Time [2, 11]: > 300 s
Kill Time [2, 9]: > 300 s
Kill Time [2, 10]: > 300 s
Kill Time [3, 5]: > 300 s
Kill Time [3, 7]: > 300 s
Kill Time [3, 11]: > 300 s
Kill Time ([4]; citronella oil series): > 300 s
Kill Time ([4]; grapefruit oil series): > 300 s
Kill Time ([4]; lemon oil series): > 300 s
Kill Time ([4]; lime oil series): > 300 s
Kill Time ([4]; peppermint oil series): > 300 s
Kill Time ([4]; tangerine oil series): > 300 s
